Results published in US7273848B2, “Apolipoprotein A-I agonists and their use to treat dyslipidemic disorders” (priority 1997, dated 2007).
Non-standard residues stand in square brackets, D forms with d. Residues, ends and D or L forms follow the SMILES beside them. Aib = CC(C)(N)C(=O)O

Target: T1, LCAT (purified from human plasma) (Homo sapiens, UniProt P04180)
T1 construct: from tissue; host or cells: human plasma
T1 sequence (P04180 25-440): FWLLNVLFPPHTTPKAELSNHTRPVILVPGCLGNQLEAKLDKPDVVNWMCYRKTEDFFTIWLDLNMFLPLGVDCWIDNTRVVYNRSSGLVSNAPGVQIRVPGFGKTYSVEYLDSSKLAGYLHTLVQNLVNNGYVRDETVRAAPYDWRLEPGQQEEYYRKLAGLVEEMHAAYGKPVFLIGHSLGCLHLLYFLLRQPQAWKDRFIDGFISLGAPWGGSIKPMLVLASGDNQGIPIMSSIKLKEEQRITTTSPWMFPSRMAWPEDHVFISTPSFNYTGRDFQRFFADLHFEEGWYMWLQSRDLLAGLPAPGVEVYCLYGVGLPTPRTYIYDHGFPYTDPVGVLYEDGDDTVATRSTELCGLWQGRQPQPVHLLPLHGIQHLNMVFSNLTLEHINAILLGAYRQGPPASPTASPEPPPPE
Test: LCAT activation assay
Assay type: biochemical
Details: LCAT activation as compared with native human ApoA-I (= 100%), equivalent masses
Outline: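 Activity was expressed as percentage conversion of radiolabelled cholesterol to cholesteryl ester, normalised to native ApoA-I as 100%. LCAT purified from human plasma was added to peptide-preincubated EPC or POPC/cholesterol (20:1) small unilamellar vesicles at pH 7.4. Specific activity is the peptide concentration reaching the conversion plateau at a fixed timepoint.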

ACTIVITY (%) LCAT	Structure (SMILES)
2%	CC(C)C[C@H](NC(=O)[C@H](C)NC(=O)[C@H](CCC(=O)O)NC(=O)[C@H](CC(C)C)NC(=O)C(C)(C)NC(=O)[C@H](Cc1c[nH]c2ccccc12)NC(=O)[C@H](CC(N)=O)NC(=O)[C@H](CC(C)C)NC(=O)[C@H](CC(C)C)NC(=O)[C@H](CCC(=O)O)NC(=O)[C@H](CCCNC(=N)N)NC(=O)[C@H](Cc1ccccc1)NC(=O)[C@H](CC(C)C)NC(=O)[C@H](CC(=O)O)NC(=O)[C@H](CC(C)C)NC(=O)[C@@H](NC(=O)[C@@H]1CCCN1)C(C)C)C(=O)N[C@@H](CCCCN)C(=O)N[C@@H](CCC(N)=O)C(=O)N[C@@H](CCCCN)C(=O)N[C@@H](CC(C)C)C(=O)N[C@@H](CCCCN)C(=O)O [compound 101, PVLDLFRELLNWXLEALKQKLK] (H-PVLDLFRELLNW[Aib]LEALKQKLK-OH)
2%	CC(C)C[C@H](NC(=O)[C@H](C)NC(=O)[C@H](CCC(=O)O)NC(=O)[C@H](CC(C)C)NC(=O)C(C)(C)NC(=O)[C@H](CC(C)C)NC(=O)[C@H](CC(N)=O)NC(=O)[C@H](CC(C)C)NC(=O)[C@H](CC(C)C)NC(=O)[C@H](CCC(=O)O)NC(=O)[C@H](CCCNC(=N)N)NC(=O)[C@H](Cc1ccccc1)NC(=O)[C@H](CC(C)C)NC(=O)[C@H](CC(=O)O)NC(=O)[C@H](CC(C)C)NC(=O)[C@@H](NC(=O)[C@@H]1CCCN1)C(C)C)C(=O)N[C@@H](CCCCN)C(=O)N[C@@H](CCC(=O)O)C(=O)N[C@@H](CCCCN)C(=O)N[C@@H](CC(C)C)C(=O)N[C@@H](CCCCN)C(=O)O [compound 102, PVLDLFRELLNLXLEALKEKLK] (H-PVLDLFRELLNL[Aib]LEALKEKLK-OH)
0%	CC(C)C[C@H](NC(=O)[C@H](C)NC(=O)[C@H](CCC(=O)O)NC(=O)C(C)(C)NC(=O)C(C)(C)NC(=O)[C@H](CCC(=O)O)NC(=O)[C@H](CC(N)=O)NC(=O)[C@H](CC(C)C)NC(=O)[C@H](CCCCN)NC(=O)[C@H](CCC(=O)O)NC(=O)[C@H](CCCNC(=N)N)NC(=O)[C@H](Cc1ccccc1)NC(=O)[C@H](CCC(=O)O)NC(=O)[C@H](CC(=O)O)NC(=O)[C@H](CC(C)C)NC(=O)[C@@H](NC(=O)[C@@H]1CCCN1)C(C)C)C(=O)N[C@@H](CCCCN)C(=O)N[C@@H](CCC(N)=O)C(=O)N[C@@H](CCCCN)C(=O)N[C@@H](CC(C)C)C(=O)N[C@@H](CCCCN)C(=O)O [compound 110, PVLDEFREKLNEXXEALKQKLK] (H-PVLDEFREKLNE[Aib][Aib]EALKQKLK-OH)
0%	CC(C)C[C@H](NC(=O)[C@H](C)NC(=O)[C@H](CCC(=O)O)NC(=O)[C@H](Cc1c[nH]c2ccccc12)NC(=O)C(C)(C)NC(=O)[C@H](CCC(=O)O)NC(=O)[C@H](Cc1c[nH]c2ccccc12)NC(=O)[C@H](CC(C)C)NC(=O)[C@H](CCCCN)NC(=O)[C@H](CCC(=O)O)NC(=O)[C@H](CCCNC(=N)N)NC(=O)[C@H](Cc1ccccc1)NC(=O)[C@H](CCC(=O)O)NC(=O)[C@H](CC(=O)O)NC(=O)[C@H](CC(C)C)NC(=O)[C@@H](NC(=O)[C@@H]1CCCN1)C(C)C)C(=O)N[C@@H](CCCCN)C(=O)N[C@@H](CCC(N)=O)C(=O)N[C@@H](CCCCN)C(=O)N[C@@H](CC(C)C)C(=O)N[C@@H](CCCCN)C(=O)O [compound 111, PVLDEFREKLWEXWEALKQKLK] (H-PVLDEFREKLWE[Aib]WEALKQKLK-OH)
0%	CC(C)C[C@H](NC(=O)[C@H](C)NC(=O)[C@H](CCC(=O)O)NC(=O)[C@H](CO)NC(=O)C(C)(C)NC(=O)[C@H](CCC(=O)O)NC(=O)[C@H](CC(N)=O)NC(=O)[C@H](CC(C)C)NC(=O)[C@H](CCCCN)NC(=O)[C@H](CCC(=O)O)NC(=O)[C@H](CCCNC(=N)N)NC(=O)[C@H](Cc1ccccc1)NC(=O)[C@H](CCC(=O)O)NC(=O)[C@H](CC(=O)O)NC(=O)[C@H](CC(C)C)NC(=O)[C@@H](NC(=O)[C@@H]1CCCN1)C(C)C)C(=O)N[C@@H](CCCCN)C(=O)N[C@@H](CCC(N)=O)C(=O)N[C@@H](CCCCN)C(=O)N[C@@H](CC(C)C)C(=O)N[C@@H](CCCCN)C(=O)O [compound 112, PVLDEFREKLNEXSEALKQKLK] (H-PVLDEFREKLNE[Aib]SEALKQKLK-OH)
0%	CSCC[C@H](NC(=O)C(C)(C)NC(=O)[C@H](CCC(=O)O)NC(=O)[C@H](CC(N)=O)NC(=O)[C@H](CC(C)C)NC(=O)[C@H](CCCCN)NC(=O)[C@H](CCC(=O)O)NC(=O)[C@H](CCCNC(=N)N)NC(=O)[C@H](Cc1ccccc1)NC(=O)[C@H](CCC(=O)O)NC(=O)[C@H](CC(=O)O)NC(=O)[C@H](CC(C)C)NC(=O)[C@@H](NC(=O)[C@@H]1CCCN1)C(C)C)C(=O)N[C@@H](CCC(=O)O)C(=O)N[C@@H](C)C(=O)N[C@@H](CC(C)C)C(=O)N[C@@H](CCCCN)C(=O)N[C@@H](CCC(N)=O)C(=O)N[C@@H](CCCCN)C(=O)N[C@@H](CC(C)C)C(=O)N[C@@H](CCCCN)C(=O)O [compound 114, PVLDEFREKLNEXMEALKQKLK] (H-PVLDEFREKLNE[Aib]MEALKQKLK-OH)
0%	CC(C)C[C@H](NC(=O)[C@H](C)NC(=O)[C@H](CCC(=O)O)NC(=O)[C@H](CC(C)C)NC(=O)C(C)(C)NC(=O)[C@H](CCC(=O)O)NC(=O)[C@H](CC(N)=O)NC(=O)[C@H](CC(C)C)NC(=O)[C@H](CCCCN)NC(=O)[C@H](CCC(=O)O)NC(=O)[C@H](CCCNC(=N)N)NC(=O)[C@H](Cc1ccccc1)NC(=O)[C@H](CCC(=O)O)NC(=O)[C@H](CC(=O)O)NC(=O)[C@H](CC(C)C)NC(=O)[C@H](CCCCN)NC(=O)[C@@H]1CCCN1)C(=O)N[C@@H](CCCCN)C(=O)N[C@@H](CCC(N)=O)C(=O)N[C@@H](CCCCN)C(=O)N[C@@H](CC(C)C)C(=O)N[C@@H](CCCCN)C(=O)O [compound 115, PKLDEFREKLNEXLEALKQKLK] (H-PKLDEFREKLNE[Aib]LEALKQKLK-OH)
0%	CC(C)C[C@H](NC(=O)[C@H](C)NC(=O)[C@H](CCC(=O)O)NC(=O)[C@H](CC(C)C)NC(=O)C(C)(C)NC(=O)[C@H](CCC(=O)O)NC(=O)[C@H](CC(N)=O)NC(=O)[C@H](CC(C)C)NC(=O)[C@H](CCCCN)NC(=O)[C@H](CCC(=O)O)NC(=O)[C@H](CCCNC(=N)N)NC(=O)[C@H](Cc1ccccc1)NC(=O)[C@H](CCC(=O)O)NC(=O)[C@H](CC(=O)O)NC(=O)[C@H](CC(C)C)NC(=O)[C@H](Cc1c[nH]cn1)NC(=O)[C@@H]1CCCN1)C(=O)N[C@@H](CCCCN)C(=O)N[C@@H](CCC(N)=O)C(=O)N[C@@H](CCCCN)C(=O)N[C@@H](CC(C)C)C(=O)N[C@@H](CCCCN)C(=O)O [compound 116, PHLDEFREKLNEXLEALKQKLK] (H-PHLDEFREKLNE[Aib]LEALKQKLK-OH)
0%	CC(C)C[C@H](NC(=O)[C@H](C)NC(=O)[C@H](CCC(=O)O)NC(=O)[C@H](CC(C)C)NC(=O)C(C)(C)NC(=O)[C@H](CCC(=O)O)NC(=O)[C@H](CC(N)=O)NC(=O)[C@H](CC(C)C)NC(=O)[C@H](CCCCN)NC(=O)[C@H](CCC(=O)O)NC(=O)[C@H](CCCNC(=N)N)NC(=O)[C@H](Cc1ccccc1)NC(=O)[C@H](CCC(=O)O)NC(=O)[C@H](CC(=O)O)NC(=O)[C@H](CC(C)C)NC(=O)[C@H](CCC(=O)O)NC(=O)[C@@H]1CCCN1)C(=O)N[C@@H](CCCCN)C(=O)N[C@@H](CCC(N)=O)C(=O)N[C@@H](CCCCN)C(=O)N[C@@H](CC(C)C)C(=O)N[C@@H](CCCCN)C(=O)O [compound 117, PELDEFREKLNEXLEALKQKLK] (H-PELDEFREKLNE[Aib]LEALKQKLK-OH)
0%	CC(C)C[C@H](NC(=O)[C@H](CCCCN)NC(=O)[C@H](CCC(N)=O)NC(=O)[C@H](CCCCN)NC(=O)C(C)(C)NC(=O)[C@H](C)NC(=O)[C@H](CCC(=O)O)NC(=O)[C@H](CC(C)C)NC(=O)[C@H](CCC(=O)O)NC(=O)[C@H](CCC(=O)O)NC(=O)[C@H](CC(N)=O)NC(=O)[C@H](CC(C)C)NC(=O)[C@H](CCCCN)NC(=O)[C@H](CCC(=O)O)NC(=O)[C@H](CCCNC(=N)N)NC(=O)[C@H](Cc1ccccc1)NC(=O)[C@H](CCC(=O)O)NC(=O)[C@H](CC(=O)O)NC(=O)[C@H](CC(C)C)NC(=O)[C@@H](NC(=O)[C@@H]1CCCN1)C(C)C)C(=O)N[C@@H](CCCCN)C(=O)O [compound 119, PVLDEFREKLNEELEAXKQKLK] (H-PVLDEFREKLNEELEA[Aib]KQKLK-OH)

Structure (SMILES)	ACTIVITY (%) LCAT
CC(C)C[C@H](NC(=O)[C@H](C)NC(=O)[C@H](CCC(=O)O)NC(=O)[C@H](CC(C)C)NC(=O)C(C)(C)NC(=O)[C@H](CCC(=O)O)NC(=O)[C@H](CC(N)=O)NC(=O)[C@H](CC(C)C)NC(=O)[C@H](CCCCN)NC(=O)[C@H](CCC(=O)O)NC(=O)[C@H](CCCNC(=N)N)NC(=O)[C@H](Cc1ccccc1)NC(=O)[C@H](CCC(=O)O)NC(=O)[C@H](CC(=O)O)NC(=O)[C@H](CC(C)C)NC(=O)[C@@H](NC(=O)[C@@H]1CCCN1)C(C)C)C(=O)N[C@@H](CCC(=O)O)C(=O)N[C@@H](CCC(N)=O)C(=O)N[C@@H](CCCCN)C(=O)N[C@@H](CC(C)C)C(=O)N[C@@H](CCCCN)C(=O)O [compound 118, PVLDEFREKLNEXLEALEQKLK] (H-PVLDEFREKLNE[Aib]LEALEQKLK-OH)	0%
